Assays:
c-Myc = c-Myc activity (Table I, biological activities); design: key: + (less active); ++ (active); +++ (most active)
SUMO = target: T1, SUMO (Homo sapiens, UniProt Q9UBT2); experiment: SUMO activity (Table I, biological activities); type: biochemical; design: key: + (less active); ++ (active); +++ (most active)
T1 sequence (Q9UBT2 1-640): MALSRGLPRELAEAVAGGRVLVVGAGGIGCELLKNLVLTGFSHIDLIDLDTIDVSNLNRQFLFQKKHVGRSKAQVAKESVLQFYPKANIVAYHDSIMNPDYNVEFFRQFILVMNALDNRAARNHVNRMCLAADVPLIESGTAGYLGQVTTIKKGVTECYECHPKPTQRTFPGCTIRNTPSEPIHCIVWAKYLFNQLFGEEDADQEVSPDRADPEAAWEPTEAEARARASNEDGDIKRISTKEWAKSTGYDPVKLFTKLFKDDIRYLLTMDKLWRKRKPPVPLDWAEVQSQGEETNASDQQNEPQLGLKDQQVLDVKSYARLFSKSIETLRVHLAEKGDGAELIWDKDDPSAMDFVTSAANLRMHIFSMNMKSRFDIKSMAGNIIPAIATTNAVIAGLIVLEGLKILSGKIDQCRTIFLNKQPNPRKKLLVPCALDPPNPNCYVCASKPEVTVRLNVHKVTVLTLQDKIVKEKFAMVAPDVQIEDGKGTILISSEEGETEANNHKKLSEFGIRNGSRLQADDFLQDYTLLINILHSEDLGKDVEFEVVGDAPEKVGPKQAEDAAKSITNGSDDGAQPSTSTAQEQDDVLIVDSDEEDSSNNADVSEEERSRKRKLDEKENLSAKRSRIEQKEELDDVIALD
T1 sequence (Q9UBE0 1-346 partner): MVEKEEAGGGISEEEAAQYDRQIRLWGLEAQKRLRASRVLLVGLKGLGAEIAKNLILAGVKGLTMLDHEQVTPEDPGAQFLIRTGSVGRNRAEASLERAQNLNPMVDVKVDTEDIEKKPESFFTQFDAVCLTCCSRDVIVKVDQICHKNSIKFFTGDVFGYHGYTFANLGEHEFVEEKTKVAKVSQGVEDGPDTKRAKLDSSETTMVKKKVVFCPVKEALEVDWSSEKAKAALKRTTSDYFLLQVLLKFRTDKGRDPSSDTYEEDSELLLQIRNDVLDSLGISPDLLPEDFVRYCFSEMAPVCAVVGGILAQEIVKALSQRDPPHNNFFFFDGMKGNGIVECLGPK

Compound	c-Myc (c-Myc)	SUMO (SUMO)
CCOc1cccc(NC(Cc2ccccc2)C23C=CC(O2)C(C(=O)NCCN2CCOCC2)=C3C(=O)OC)c1 (stereo not drawn) [Compound 252]	++	+++
CCOc1cccc(NC(Cc2ccccc2)C23C=CC(O2)C(C(=O)Nc2ccncc2)=C3C(=O)OC)c1 (stereo not drawn) [Compound 253]	+	++
CCOc1cccc(NC(Cc2ccccc2)C23C=CC(O2)C(C(=O)NCc2ccncc2)=C3C(=O)OC)c1 (stereo not drawn) [Compound 254]	+	++
COC(=O)C1=C(C(=O)NC2CCN(C)C2)C2C=CC1(C(Cc1ccccc1)Nc1cc(F)cc(F)c1)O2 (stereo not drawn) [Compound 256]	+	++
COC(=O)C1=C(C(=O)NC2CCN(C)CC2)C2C=CC1(C(Cc1ccccc1)Nc1c(F)cccc1F)O2 (stereo not drawn) [Compound 258]	+	++
CCOC(=O)C1=C(C(=O)OCC)C2(C(Cc3ccccc3)Nc3ccccc3)C=CC1(C)O2 (stereo not drawn) [Compound 260]	+	++
COC(=O)C1=C(C(=O)NC2CCN(C)CC2)C2C=CC1(C(Cc1ccccc1)Nc1ccc(F)cc1)O2 (stereo not drawn) [Compound 262]	++	++
COC(=O)C1=C(C(=O)NC2CCN(C)C2)C2C=CC1(C(Cc1ccccc1)Nc1ccc(F)cc1)O2 (stereo not drawn) [Compound 263]	++	+++
COC(=O)C1=C(C(=O)NCCN(C)C)C2C=CC1(C(Cc1ccccc1)Nc1ccc(F)cc1)O2 (stereo not drawn) [Compound 264]	++	+++
CCCCC(Nc1cc(F)cc(F)c1)C12C=CC(O1)C(C(=O)NC1CCN(C)CC1)=C2C(=O)OC (stereo not drawn) [Compound 266]	+	+++
CCCCC(Nc1ccccc1)C12C=CC(O1)C(C(=O)NC1CCN(C)CC1)=C2C(=O)OC (stereo not drawn) [Compound 267]	++	++
COC(=O)C1=C(C(=O)NC2CCN(C)CC2)C2C=CC1(C(Cc1ccccc1)Nc1ccccc1F)O2 (stereo not drawn) [Compound 272]	+	++
COC(=O)C1=C(C(N)=O)C2C=CC1(C(Cc1ccccc1)Nc1ccccc1)O2 (stereo not drawn) [Compound 274]	++	+++
COC(=O)C1=C(C(=O)Nc2cccc(F)c2)C2C=CC1(C(Cc1ccccc1)Nc1ccccc1)O2 (stereo not drawn) [Compound 276]	+	++
COC(=O)C1=C(C(=O)NC2CCN(C(C)C)CC2)C2C=CC1(C(Cc1ccccc1)Nc1ccccc1)O2 (stereo not drawn) [Compound 277]	++	+++
COCCN1CCC(NC(=O)C2=C(C(=O)OC)C3(C(Cc4ccccc4)Nc4ccccc4)C=CC2O3)CC1 (stereo not drawn) [Compound 278]	++	+++
COC(=O)C1=C(C(=O)NC2CCN(CCO)CC2)C2C=CC1(C(Cc1ccccc1)Nc1ccccc1)O2 (stereo not drawn) [Compound 279]	++	+++
COC(=O)C1=C(C(=O)Nc2ccc(C)c(F)c2)C2C=CC1(C(Cc1ccccc1)Nc1ccccc1)O2 (stereo not drawn) [Compound 285]	++	++
COC(=O)C1=C(C(=O)NC2CCN(C(C)=O)CC2)C2C=CC1(C(Cc1ccccc1)Nc1ccccc1)O2 (stereo not drawn) [Compound 287]	++	++
COC(=O)C1=C(C(=O)NC2CCN(Cc3ccccc3)CC2)C2C=CC1(C(Cc1ccccc1)Nc1ccccc1)O2 (stereo not drawn) [Compound 288]	++	++
COC(=O)C1=C(C(=O)Nc2ccc(C)nc2)C2C=CC1(C(Cc1ccccc1)Nc1ccccc1)O2 (stereo not drawn) [Compound 289]	++	++
COC(=O)C1=C(C(=O)NC2CCN(C)CC2)C2C=CC1(C(Cc1ccccc1)Oc1ccccc1)O2 (stereo not drawn) [Compound 292]	++	++
COC(=O)C1=C(C(=O)NC2CCN(C(=O)c3ccc(F)cc3)CC2)C2C=CC1(C(Cc1ccccc1)Nc1ccccc1)O2 (stereo not drawn) [Compound 297]	++	++
CCOC(=O)C1=C(C(F)(F)F)C2(C(Cc3ccccc3)Nc3ccccc3)C=CC1O2 (stereo not drawn) [Compound 298]	+	++

Source: patent US11578079B2, “SUMO inhibitor compounds and uses thereof” (CITY OF HOPE, priority 2018, dated 2023)
